This passage reports IC50 results from patent US6534523B1, “Hepatitis C inhibitor tri-peptides” (Boehringer Ingelheim (Canada) Ltd., priority 1998, dated 2003).

In experiment [1] the target is T1, full length NS3-NS4A heterodimer protein (His-NS3-NS4AFL) (Hepatitis C virus genotype 1b, UniProt P26663).
T1 construct: The full length mature NS3 and NS4A heterodimer protein (His-NS3-NS4AFL) was expressed; made in house; host or cells: Sf21 insect cells, recombinant baculovirus
In words: Full-length NS3-NS4A heterodimer protein assay (Example 38). The experiment is classed as biochemical, HCV genotype 1b. The text has this:
Full-length NS3-NS4A Heterodimer Protein Assay
The NS2-NS5B-3′ non coding region was cloned by RT-PCR into the pCR®3 vector (Invitrogen) using RNA extracted from the serum of an HCV genotype 1b infected individual (provided by Dr. Bernard Willems, Hôpital St-Luc, Montréal, Québec, Canada). The NS3-NS4A DNA region was then subcloned by PCR into the pFastBac™ HTa baculovirus expression vector (Gibco/BRL). The vector sequence includes a region encoding a 28-residue N-terminal sequence which contains a hexahistidine tag. The Bac-to-Bac™ baculovirus expression system (Gibco/BRL) was used to produce the recombinant baculovirus. The full length mature NS3 and NS4A heterodimer protein (His-NS3-NS4AFL) was expressed by infecting 10^6 Sf21 cells/mL with the recombinant baculovirus at a multiplicity of infection of 0.1-0.2 at 27° C. The infected culture was harvested 48 to 64 h later by centrifugation at 4° C. The cell pellet was homogenized in 50 mM NaPO4, pH 7.5, 40% glycerol (w/v), 2 mM β-mercaptoethanol, in presence of a cocktail of protease inhibitors. […] Fluorescence of the N-terminal product was monitored on a Perkin-Elmer LS-50B fluorometer equipped with a 96-well plate reader (excitation wavelength: 325 nm; emission wavelength: 423 nm).
The % inhibition was calculated with the following equation: […]

For experiment [2], the target named is porcine pancreatic elastase (PPE) (Sus scrofa, UniProt P00772). In words: Specificity assay (Example 40), porcine pancreatic elastase. Type of experiment: biochemical. On the procedure:
The specificity of the compounds was determined against a variety of serine proteases: human leukocyte elastase, porcine pancreatic elastase and bovine pancreatic α-chymotrypsin and one cysteine protease: human liver cathepsin B. In all cases a 96-well plate format protocol using a calorimetric p-nitroaniline (pNA) substrate specific for each enzyme was used. Each assay included a 1 h enzyme-inhibitor pre-incubation at 30° C. followed by addition of substrate and hydrolysis to ≈30% conversion as measured on a UV Thermomax® microplate reader. Substrate concentrations were kept as low as possible compared to KM to reduce substrate competition. Compound concentrations varied from 300 to 0.06 μM depending on their potency.
The final conditions for each assay were as follows:
50 mM Tris-HCl pH 8, 0.5 M Na2SO4, 50 mM NaCl, 0.1 mM EDTA, 3% DMSO, 0.01% Tween-20 with;
[100 μM Succ-AAPF-pNA and 250 pM α-chymotrypsin], [133 μM Succ-AAA-pNA and 8 nM porcine elastase], [133 μM Succ-AAV-pNA and 8 nM leukocyte elastase]; or […]
After 60 min pre-incubation at 30° C., 20 μL of substrate solution (50 mM Tris-HCl, pH 8, 0.5 M Na2SO4, 50 mM NaCl, 0.1 mM EDTA, 665 μM Succ-AAA-pNA) were added to each well and the reaction was further incubated at 30° C. for 60 min after which time the absorbance was read on the UV Thermomax® plate reader. […]
The percentage of inhibition was calculated using the formula: […]

Molecules are shown by their SMILES. A value given as a limit tells only on which side of the number the result lay.

Sequence of porcine pancreatic elastase (PPE) (P00772 27-266): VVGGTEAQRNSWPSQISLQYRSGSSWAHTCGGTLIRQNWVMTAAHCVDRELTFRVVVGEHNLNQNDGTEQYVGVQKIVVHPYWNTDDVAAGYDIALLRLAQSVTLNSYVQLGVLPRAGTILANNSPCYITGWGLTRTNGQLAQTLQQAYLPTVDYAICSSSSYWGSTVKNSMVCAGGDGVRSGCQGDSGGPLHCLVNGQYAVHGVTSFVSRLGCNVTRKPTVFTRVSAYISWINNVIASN
T1 sequence (P26663 1027-1657): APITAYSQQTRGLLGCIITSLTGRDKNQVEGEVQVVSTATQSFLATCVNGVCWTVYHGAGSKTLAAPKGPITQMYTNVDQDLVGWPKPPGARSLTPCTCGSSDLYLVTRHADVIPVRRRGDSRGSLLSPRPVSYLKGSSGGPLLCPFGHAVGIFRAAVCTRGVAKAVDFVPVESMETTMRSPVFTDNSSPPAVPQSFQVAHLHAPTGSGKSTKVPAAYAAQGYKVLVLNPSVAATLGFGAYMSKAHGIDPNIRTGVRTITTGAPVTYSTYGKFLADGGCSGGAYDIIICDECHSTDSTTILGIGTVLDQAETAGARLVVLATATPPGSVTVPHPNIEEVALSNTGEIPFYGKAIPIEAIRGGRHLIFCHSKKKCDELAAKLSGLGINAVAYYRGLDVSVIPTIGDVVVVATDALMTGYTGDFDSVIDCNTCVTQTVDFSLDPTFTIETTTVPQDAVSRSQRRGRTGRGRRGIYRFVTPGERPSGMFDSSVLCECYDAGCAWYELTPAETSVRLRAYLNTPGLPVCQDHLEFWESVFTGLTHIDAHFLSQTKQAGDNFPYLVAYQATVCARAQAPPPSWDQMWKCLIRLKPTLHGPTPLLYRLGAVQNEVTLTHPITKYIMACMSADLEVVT
T1 sequence (P26663 1658-1711): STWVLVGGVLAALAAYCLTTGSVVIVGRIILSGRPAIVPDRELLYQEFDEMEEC

By IC50 is commonly meant the point on the concentration scale where inhibition reaches its midpoint. Read a low IC50 as inhibition by little substance. For the molecule `C=C[C@@H]1C[C@]1(NC(=O)[C@@H]1C[C@@H](Oc2cc(-c3ccccc3)nc3cc(OC)ccc23)CN1C(=O)[C@@H](NC(=O)OC(C)(C)C)C(C)C)C(=O)O` [compound 601], the IC50 is 30 nM in experiment [1] and over 75 µM in experiment [2].
